Measured values taken from patent US10947242B2, “[1,2,4]triazolo[1,5and#8208;A]pyrimidine compounds as PDE2 inhibitors” (Janssen Pharmaceutica NV, priority 2016, dated 2021).
Structures can show the parent of a compound that is named as a salt. Where two headings read alike, the source gives them in different places.

Tests used:
Assay type in all cases: biochemical
[1] = target: T1, Human recombinant PDE2A (hPDE2A) (Homo sapiens, UniProt O00408); assay: In vitro assay PDE2A (SPA, 3H-cGMP hydrolysis); conditions: for Emax: read-out: hPDE2A Emax
T1 construct: His tag (inferred from metal chelate purification); made in house; host or cells: Sf9 insect cells (baculovirus)
T1 sequence (O00408 whole entry): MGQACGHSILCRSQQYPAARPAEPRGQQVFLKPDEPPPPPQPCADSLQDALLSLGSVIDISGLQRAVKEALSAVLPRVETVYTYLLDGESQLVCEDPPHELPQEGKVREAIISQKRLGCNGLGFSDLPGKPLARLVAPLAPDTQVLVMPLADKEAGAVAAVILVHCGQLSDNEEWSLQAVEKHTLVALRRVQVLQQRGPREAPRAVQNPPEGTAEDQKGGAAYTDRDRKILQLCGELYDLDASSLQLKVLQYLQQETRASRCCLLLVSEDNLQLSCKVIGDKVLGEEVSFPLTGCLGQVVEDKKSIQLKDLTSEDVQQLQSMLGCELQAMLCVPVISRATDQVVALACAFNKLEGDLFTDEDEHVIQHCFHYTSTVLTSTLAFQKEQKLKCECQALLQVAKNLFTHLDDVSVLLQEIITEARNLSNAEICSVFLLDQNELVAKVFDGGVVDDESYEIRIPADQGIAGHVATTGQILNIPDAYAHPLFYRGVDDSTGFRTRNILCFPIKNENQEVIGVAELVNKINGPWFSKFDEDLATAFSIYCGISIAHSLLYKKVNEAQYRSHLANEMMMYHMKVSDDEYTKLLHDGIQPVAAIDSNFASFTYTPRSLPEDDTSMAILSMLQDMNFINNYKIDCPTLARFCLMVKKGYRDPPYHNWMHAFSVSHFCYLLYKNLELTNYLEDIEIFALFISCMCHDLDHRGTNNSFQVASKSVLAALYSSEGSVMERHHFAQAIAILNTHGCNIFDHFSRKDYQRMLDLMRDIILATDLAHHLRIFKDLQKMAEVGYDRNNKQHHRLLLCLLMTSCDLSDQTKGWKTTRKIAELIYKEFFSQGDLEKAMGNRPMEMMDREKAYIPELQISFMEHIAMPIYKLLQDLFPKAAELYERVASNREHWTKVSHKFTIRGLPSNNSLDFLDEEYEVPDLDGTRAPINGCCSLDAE

[2] = target: T2, Human recombinant PDE3A (hPDE3A) (Homo sapiens, UniProt Q14432); assay: In vitro assay PDE3A (SPA, 3H-cAMP hydrolysis); conditions: for IC50: hPDE3B pIC50, read-out: pIC50 (converted); for Emax: read-out: hPDE3B Emax, read-out: Emax;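 on all read-outs here: the method names PDE3A and the table heading PDE3B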
T2 construct: purchased Scottish Biomedical; host or cells: Sf9 insect cells
T2 sequence (Q14432 whole entry): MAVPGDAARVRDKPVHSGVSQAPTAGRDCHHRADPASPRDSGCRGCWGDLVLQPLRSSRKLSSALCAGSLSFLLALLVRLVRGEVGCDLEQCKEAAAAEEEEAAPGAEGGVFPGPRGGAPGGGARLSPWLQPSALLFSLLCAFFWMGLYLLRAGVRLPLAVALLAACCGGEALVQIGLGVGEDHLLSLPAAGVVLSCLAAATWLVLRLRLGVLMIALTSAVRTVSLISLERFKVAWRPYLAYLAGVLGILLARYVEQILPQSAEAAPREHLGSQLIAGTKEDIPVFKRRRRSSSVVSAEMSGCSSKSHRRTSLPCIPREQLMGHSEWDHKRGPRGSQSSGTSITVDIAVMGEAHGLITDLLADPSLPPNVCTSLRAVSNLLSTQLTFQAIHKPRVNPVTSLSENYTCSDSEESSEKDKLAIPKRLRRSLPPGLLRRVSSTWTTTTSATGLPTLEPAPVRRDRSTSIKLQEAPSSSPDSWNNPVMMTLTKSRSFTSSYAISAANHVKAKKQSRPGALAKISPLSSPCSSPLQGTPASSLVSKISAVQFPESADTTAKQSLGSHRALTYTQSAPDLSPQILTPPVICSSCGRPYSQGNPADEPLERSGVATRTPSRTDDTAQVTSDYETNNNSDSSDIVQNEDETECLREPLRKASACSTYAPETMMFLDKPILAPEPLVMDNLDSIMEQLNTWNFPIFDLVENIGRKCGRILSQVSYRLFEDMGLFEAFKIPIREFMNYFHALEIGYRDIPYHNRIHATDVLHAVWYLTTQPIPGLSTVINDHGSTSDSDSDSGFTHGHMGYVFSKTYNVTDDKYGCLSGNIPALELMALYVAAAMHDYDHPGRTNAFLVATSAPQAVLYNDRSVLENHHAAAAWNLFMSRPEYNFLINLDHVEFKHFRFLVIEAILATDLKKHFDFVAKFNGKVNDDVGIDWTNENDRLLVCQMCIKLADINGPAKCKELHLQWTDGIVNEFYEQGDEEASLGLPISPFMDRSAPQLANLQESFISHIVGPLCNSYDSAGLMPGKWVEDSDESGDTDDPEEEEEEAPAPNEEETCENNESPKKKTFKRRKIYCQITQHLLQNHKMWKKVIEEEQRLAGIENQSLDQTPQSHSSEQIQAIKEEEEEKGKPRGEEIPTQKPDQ
Procedure: Human recombinant PDE3A (hPDE3A) was supplied as a partially purified insect cell lysate by Scottish Biomedical, it was cloned from human brain and expressed in Sf9 cells. Tested compounds were dissolved and diluted in 100% DMSO to a concentration 100 fold of the final concentration in the assay. Compound dilutions (0.4 μl) were added in 384 well plates to 20 μl of incubation buffer (50 mM Tris pH 7.8, 8.3 mM MgCl2, 1.7 mM EGTA). 10 μl of hPDE3A enzyme in incubation buffer was added and the reaction was started by addition of 10 μl substrate to a final concentration of 0.4 μM cAMP and 2.4 μCi/ml [^3H]-cAMP. The reaction was incubated for 60 min at room temperature. […] After sedimentation of the beads during 30 min the radioactivity was measured in a Perkin Elmer Topcount scintillation counter and results were expressed as cpm. For blanc values the enzyme was omitted from the reaction and replaced by incubation buffer. Control values were obtained by addition of a final concentration of 1% DMSO instead of compound.

[3] = target: T3, Human recombinant PDE10A (hPDE10A) (Homo sapiens, UniProt Q9Y233); assay: In vitro assay PDE10A, human clone (SPA, 3H-cAMP hydrolysis)
T3 construct: His tag (inferred from metal chelate purification); made in house; host or cells: Sf9 insect cells (baculovirus)
T3 sequence (Q9Y233 267-1055): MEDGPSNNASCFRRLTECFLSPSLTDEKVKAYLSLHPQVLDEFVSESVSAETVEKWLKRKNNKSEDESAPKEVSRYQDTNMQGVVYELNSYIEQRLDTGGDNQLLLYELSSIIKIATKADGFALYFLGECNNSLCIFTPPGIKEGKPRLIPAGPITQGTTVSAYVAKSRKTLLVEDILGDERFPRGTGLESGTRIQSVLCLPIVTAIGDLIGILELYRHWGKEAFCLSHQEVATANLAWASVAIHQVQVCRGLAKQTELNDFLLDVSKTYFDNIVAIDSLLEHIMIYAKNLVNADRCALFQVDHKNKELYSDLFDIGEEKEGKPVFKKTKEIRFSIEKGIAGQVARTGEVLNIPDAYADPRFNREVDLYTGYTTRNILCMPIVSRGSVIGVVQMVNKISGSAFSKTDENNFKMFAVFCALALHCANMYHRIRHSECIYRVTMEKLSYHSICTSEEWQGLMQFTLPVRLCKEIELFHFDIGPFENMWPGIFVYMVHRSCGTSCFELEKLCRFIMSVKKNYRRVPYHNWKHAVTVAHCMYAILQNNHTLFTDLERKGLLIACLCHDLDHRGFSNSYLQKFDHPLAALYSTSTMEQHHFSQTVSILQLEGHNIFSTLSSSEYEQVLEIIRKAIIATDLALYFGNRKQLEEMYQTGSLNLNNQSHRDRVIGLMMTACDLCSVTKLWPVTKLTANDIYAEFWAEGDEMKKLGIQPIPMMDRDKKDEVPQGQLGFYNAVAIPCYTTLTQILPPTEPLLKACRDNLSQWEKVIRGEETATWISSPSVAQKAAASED
Procedure: Rat recombinant PDE10A (rPDE10A2) was expressed in Sf9 cells using a recombinant rPDE10A baculovirus construct. […] Tested compounds were dissolved and diluted in 100% DMSO to a concentration 100 fold of the final concentration in the assay. Human recombinant PDE10A ([…]) was expressed in Sf9 cells using a recombinant hPDE10A baculovirus that was made and amplified in house. […] Compound dilutions (0.4 μl) were added in 384 well plates to 20 μl of incubation buffer (50 mM Tris pH 7.8, 8.3 mM MgCl2, 1.7 mM EGTA). 10 μl of rPDE10A or hPDE10A enzyme in incubation buffer was added and the reaction was started by addition of 10 μl substrate to a final concentration of 60 nM cAMP and 0.008 μCi ^3H-cAMP. The reaction was incubated for 60 minutes at room temperature. […] After sedimentation of the beads during 30 minutes the radioactivity was measured in a Perkin Elmer Topcount scintillation counter and results were expressed as cpm. For blanc values the enzyme was omitted from the reaction and replaced by incubation buffer. Control values were obtained by addition of a final concentration of 1% DMSO instead of compound.

[4] = human recombinant PDE2A, 10 μM cGMP substrate, read-out: hPDE2A pIC50 (converted)
[5] = read-out: hPDE2A pIC50 (converted)
[6] = human clone (h), default, read-out: hPDE10A2 Emax
[7] = human clone (h), default, read-out: hPDE10A2 pIC50 (converted)
[8] = hPDE2A pIC50, human recombinant PDE2A, 10 μM cGMP substrate
[9] = human recombinant PDE2A, 10 μM cGMP substrate

Row | SMILES | IC50 [1, 4] [nM] | Emax ([1]; human recombinant PDE2A) [%] | Emax [1] [%] | IC50 [1, 5] [nM] | IC50 [2] [µM] | Emax [2] [%] | Emax [3, 6] [%] | IC50 [3, 7] [nM] | Emax ([3]; human clone by default (no (r) mark), read-out: hPDE10A2 or rPDE10A2 Emax) [%] | IC50 ([3]; human clone by default (no (r) mark), read-out: hPDE10A2 or rPDE10A2 pIC50 (converted)) [nM] | hPDE2A Emax [1] | hPDE2A pIC50 [1] | hPDE2A Emax ([1]; human recombinant PDE2A) | hPDE2A pIC50 [1, 9] | hPDE3B Emax [2] | hPDE10A2 Emax ([3]; human clone (h), default) | hPDE10A2 pIC50 ([3]; human clone (h), default) | IC50 [1, 8] [nM] | IC50 ([1]; hPDE2A pIC50) [nM]
1 | CCCC[C@@H]1CCN(C(=O)c2cc(C)nc(C)c2)C[C@H]1c1cc(C(F)F)nc2ncnn12 (mixture of isomers) [Compound 44] | 9.55 | 100 | 100 | 9.55 | > 10 | 39 | 79 | 2570 | – | – | – | – | – | – | – | – | – | – | –
2 | CCCC[C@H]1CCN(C(=O)c2cc(C)nc(C)c2)C[C@H]1c1cc(C(F)F)nc2ncnn12 (mixture of isomers) [Compound 219] | 138 | 100 | 100 | 138 | > 10 | 18 | 45 | 9120 | 45 | 9120 | – | – | – | – | – | – | – | – | –
3 | O=C(c1ccc2occc2c1)N1CCC[C@](F)(c2cc(C(F)F)nc3ncnn23)C1 (single isomer, unassigned) [Compound 138] | – | – | 93 | 28.2 | 4.9 | 64 | 24 | > 10000 | – | – | – | – | – | – | – | – | – | – | –
4 | C[C@]1(c2cc(C(F)F)nc3ncnn23)CCCN(C(=O)c2ccc3c(ccn3CCF)c2)C1 (single isomer, unassigned) [Compound 200] | 97.7 | 91 | 91 | 97.7 | > 10 | 35 | 13 | > 10000 | – | – | – | – | – | – | – | – | – | – | –
5 | Cc1csc(C(=O)N2CCC[C@](C)(c3cc(C(F)F)nc4ncnn34)C2)c1 (single isomer, unassigned) [Compound 208] | 589 | 62 | 62 | 589 | > 10 | 30 | 4 | > 10000 | – | – | – | – | – | – | – | – | – | – | –
6 | C[C@]1(c2cc(C(F)F)nc3ncnn23)CCCN(C(=O)c2ccc3nccn3c2)C1 (single isomer, unassigned) [Compound 212] | 575 | 61 | 61 | 575 | > 10 | 7 | 8 | > 10000 | – | – | – | – | – | – | – | – | – | – | –
7 | Cc1cc(C(=O)N2CC[C@H](C)[C@@H](c3cc(C(F)F)nc4ncnn34)C2)cc(C)n1 [220 (•HCl)] | – | – | 54 | – | – | – | 27 | > 10000 | – | – | – | – | – | – | – | – | – | 977 | –
8 | Cc1cc([C@H]2CN(C(=O)c3ccc(C)c(C)n3)CC[C@@H]2C)n2ncnc2n1 [Compound 3b] | – | – | 64 | – | > 10 | 14 | 19 | > 10000 | – | – | – | – | – | – | – | – | – | 5620 | 5620
9 | Cc1cc([C@@H]2CN(C(=O)c3ccc4occ(C)c4c3)CC[C@H]2C)n2ncnc2n1 [Compound 5] | – | – | 100 | – | 0.589 | 97 | 100 | 8.91 | – | – | – | – | – | – | – | – | – | 0.955 | 0.955
10 | Cc1cc([C@@H]2CN(C(=O)c3ccnc(Cl)c3)CC[C@H]2C)n2ncnc2n1 [Compound 15] | – | – | 100 | – | 8.13 | 54 | 97 | 72.4 | – | – | – | – | – | – | – | – | – | 3.24 | 3.24
11 | Cc1cc(C(=O)N2CC[C@H](C)[C@@](F)(c3cc(C(F)F)nc4ncnn34)C2)cc(C2CC2)n1 [Compound 24a] | 2570 | 80 | 80 | 2570 | > 10 | 31 | 23 | > 10000 | – | – | – | – | – | – | – | – | – | – | –

The next lines start with results.

Row | IC50 [1, 4] [nM] | Emax ([1]; human recombinant PDE2A) [%] | Emax [1] [%] | IC50 [1, 5] [nM] | IC50 [2] [µM] | Emax [2] [%] | Emax [3, 6] [%] | IC50 [3, 7] [nM] | Emax ([3]; human clone by default (no (r) mark), read-out: hPDE10A2 or rPDE10A2 Emax) [%] | IC50 ([3]; human clone by default (no (r) mark), read-out: hPDE10A2 or rPDE10A2 pIC50 (converted)) [nM] | hPDE2A Emax [1] | hPDE2A pIC50 [1] | hPDE2A Emax ([1]; human recombinant PDE2A) | hPDE2A pIC50 [1, 9] | hPDE3B Emax [2] | hPDE10A2 Emax ([3]; human clone (h), default) | hPDE10A2 pIC50 ([3]; human clone (h), default) | SMILES | IC50 [1, 8] [nM] | IC50 ([1]; hPDE2A pIC50) [nM]
12 | > 10000 | 37 | 37 | > 10000 | > 10 | 1 | 24 | > 10000 | – | – | – | – | – | – | – | – | – | CCCC[C@@H]1CCN(C(=O)c2cc(C)nc(C)c2)C[C@H]1c1cc(C(F)F)nc2ncnn12 (single isomer, unassigned) [Compound 45] | – | –
13 | – | – | – | – | – | – | – | – | – | – | 88 | 5.96 | 88 | 5.96 | 13 | 50 | 5.01 | Cc1cc(C(=O)N2CC[C@H](C)[C@@H](c3cc(C)nc4ncnn34)C2)cc(C)n1 [Compound 1b] | – | –
14 | 0.794 | 100 | 100 | 0.794 | 0.0759 | 100 | 101 | 17 | – | – | – | – | – | – | – | – | – | Cc1cc([C@@H]2CN(C(=O)c3oc4ccccc4c3C)CC[C@H]2C)n2ncnc2n1 [Compound 7] | – | –
15 | 1.1 | 100 | 100 | 1.1 | 0.275 | 97 | 100 | 11.2 | – | – | – | – | – | – | – | – | – | Cc1cc([C@@H]2CN(C(=O)c3cc4ccccc4o3)CC[C@H]2C)n2ncnc2n1 [Compound 8] | – | –
16 | 13.8 | 101 | 101 | 13.8 | 4.27 | 74 | 100 | 74.1 | – | – | – | – | – | – | – | – | – | Cc1cc([C@@H]2CN(C(=O)c3ccc(C(C)(C)C)o3)CC[C@H]2C)n2ncnc2n1 [Compound 9] | – | –
17 | 22.9 | 100 | 100 | 22.9 | 4.79 | 69 | 95 | 372 | – | – | – | – | – | – | – | – | – | Cc1cc([C@@H]2CN(C(=O)c3ccnc(Cl)c3F)CC[C@H]2C)n2ncnc2n1 [Compound 11] | – | –
18 | 21.4 | 101 | 101 | 21.4 | 1.1 | 94 | 97 | 363 | – | – | – | – | – | – | – | – | – | Cc1cc([C@@H]2CN(C(=O)c3cc4c(nc3Cl)CCCC4)CC[C@H]2C)n2ncnc2n1 [Compound 12] | – | –
19 | 6.03 | 99 | 99 | 6.03 | 4.68 | 70 | 99 | 89.1 | – | – | – | – | – | – | – | – | – | Cc1cc([C@@H]2CN(C(=O)c3ccn(C)c3)CC[C@H]2C)n2ncnc2n1 [Compound 14] | – | –
20 | 6.17 | 100 | 100 | 6.17 | 1.66 | 88 | 98 | 63.1 | – | – | – | – | – | – | – | – | – | Cc1cc([C@@H]2CN(C(=O)c3cc(C)sc3C)CC[C@H]2C)n2ncnc2n1 [Compound 16] | – | –
21 | 4.9 | 99 | 99 | 4.9 | 4.27 | 74 | 97 | 81.3 | – | – | – | – | – | – | – | – | – | Cc1cc([C@@H]2CN(C(=O)c3cnc(Cl)c(Cl)c3)CC[C@H]2C)n2ncnc2n1 [Compound 17] | – | –
22 | 10.5 | 101 | 101 | 10.5 | 3.09 | 79 | 96 | 129 | – | – | – | – | – | – | – | – | – | Cc1cc([C@@H]2CN(C(=O)c3cccc4nc(C)oc34)CC[C@H]2C)n2ncnc2n1 [Compound 19] | – | –
23 | 12 | 101 | 101 | 12 | 4.27 | 74 | 98 | 132 | – | – | – | – | – | – | – | – | – | Cc1cc([C@@H]2CN(C(=O)c3cnc4ccc(C(F)(F)F)cn34)CC[C@H]2C)n2ncnc2n1 [Compound 20] | – | –
24 | 4.57 | 99 | 99 | 4.57 | 1.51 | 89 | 97 | 132 | – | – | – | – | – | – | – | – | – | Cc1cc([C@@H]2CN(C(=O)c3nc4ccccc4o3)CC[C@H]2C)n2ncnc2n1 [Compound 21] | – | –
25 | – | – | – | – | – | – | – | – | – | – | 21 | <5 | 21 | <5 | 0 | 7 | <5 | Cc1cc(C(=O)N2CC[C@@H](C)[C@H](c3cc(C#N)nc4ncnn34)C2)cc(C)n1 [Compound 26a] | – | –
